# According to patent publication US12491185B2, “Inhibitors of mPTP” (NRG Therapeutics Ltd, priority 2023, dated 2025):
# Key:
# mPTP [1] = assay: mPTP activity (Ca2+ retention) assay in isolated rat liver mitochondria; format: biochemical; conditions: examples tested by different contract research organisations, believed comparable
# How it was run: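 pIC50 was taken from Fluo5N fluorescence at 10 min after a 75 μM CaCl2 bolus, scaled between DMSO (0%) and 5 μM cyclosporin A (100%). Compounds, ten half-log concentrations from 30 μM to 1 nM final, sat 10 min at RT with fresh female Sprague Dawley rat liver mitochondria energized by succinate plus rotenone.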
# mPTP [2] = assay: mPTP activity assay in isolated rat brain mitochondria; format: biochemical; conditions: fluorescence at 10 min timepoint
# Method: MPTP activity was measured in brain mitochondria freshly isolated from female Sprague Dawley (250 to 300 gram) rats. Anaesthetised rats were perfused in-situ with −40 ml cold Dulbecco's Phosphate Buffered Saline (DPBS), then brains dissected and transferred into 30 ml Isolation Buffer (225 mM mannitol, 75 mM sucrose, 1 mM EGTA, adjusted to pH 7.4 with 1M NaOH). The brain was minced using tweezers and a scalpel into −5 mm pieces then transferred into a 50 ml Potterton Dounce homogenization tube on ice containing 10 ml ice-cold isolation buffer (as above with addition of Complete Protease inhibitor; 1 tablet per 50 ml buffer). Homogenisation was carried out using a teflon pestle at 1800 rpm. The slurry was centrifuged at 2000 g for 10 min at 4° C., then the supernatant centrifuged at 12,000 g for 9 min. The pellet was resuspended with a dounce homogeniser in isolation buffer as above but with the addition of 0.02% digitonin, centrifuged at 12,000 g for 11 min and finally resuspended in 5 ml modified isolation buffer (as above but with EGTA reduced to 0.1 mM).
# Test compounds were prepared in 384 well polypropylene assay plates as described above for the liver mitochondria assay. A stock mitochondria/Fluo5N assay solution was prepared in 5.6 ml assay buffer (120 mM mannitol, 40 mM MOPS, 5 mM KH2PO4, 60 mM KCl, 10 mM pyruvate, 2 mM malate, 2 mM MgCl2, 20 μM ADP, 1.26 μM oligomycin A, adjusted to pH 7.4) supplemented with Fluo5N pentapotassium salt (2 μM) and 1 ml mitochondria suspension, then transferred (15 μl) into the assay plate containing test compounds and incubated for 10 min at RT. Assay plates were then transferred to a FLIPR Tetra plate reader (Molecular Devices). Dye fluorescence was then measured every 3 sec for a total of 10 min.
SMILES,mPTP Rat liver pIC50 (mPTP [1]),mPTP Rat brain pIC50 (mPTP [2])
"CC(NC(=O)c1nn(C)c(=O)[nH]1)C1(Cc2ccccc2)CCC1 (single isomer, unassigned) [Example 24A, N-(1-(1-benzylcyclobutyl)ethyl)-1-methyl-5-oxo-4,5-dihydro-1H-1,2,4-triazole-3-carboxamide]",6.75,7.83
"CC(NC(=O)c1nn(C)c(=O)[nH]1)C1(Cc2ccccc2)CCC1 (single isomer, unassigned) [Example 24B, N-(1-(1-benzylcyclobutyl)ethyl)-1-methyl-5-oxo-4,5-dihydro-1H-1,2,4-triazole-3-carboxamide]",<4.52,5.49
"CC(NC(=O)c1nn(C)c(=O)[nH]1)C(C)(C)Cc1ccccc1 (single isomer, unassigned) [Example 39B, N-(3,3-dimethyl-4-phenylbutan-2-yl)-1-methyl-5-oxo-4,5-dihydro-1H-1,2,4-triazole-3-carboxamide]",6.56,7.62
"O=C(NCC1(Cc2ccc(F)cc2F)CC12CC2)c1noc(=O)[nH]1 (single isomer, unassigned) [Example 233]",5.77,7.10
"O=C(NCC1(Cc2ccc(F)cc2F)CC12CC2)c1noc(=O)[nH]1 (single isomer, unassigned) [Example 234]",5.24,6.30
"O=C(NCC1(Cc2ccc(F)cc2F)CC12CC2)c1nccc(=O)[nH]1 (single isomer, unassigned) [Example 236]",6.11,7.18
"Cn1nc(C(=O)NCC(C)(Cc2ccc(F)cc2F)C2CC2)[nH]c1=O (single isomer, unassigned) [Example 240, N-(2-cyclopropyl-3-(2,4-difluorophenyl)-2-methylpropyl)-1-methyl-5-oxo-4,5-dihydro-1H-1,2,4-triazole-3-carboxamide]",6.91,7.61
"O=C(NCC1(Cc2ccc(F)cc2F)CC(F)C1)c1nccc(=O)[nH]1 (single isomer, unassigned) [Example 248]",6.16,7.05
"CC(CNC(=O)c1nccc(=O)[nH]1)(Cc1ccc(F)cc1)C1CC1 (single isomer, unassigned) [Example 251]",6.21,7.06
"CCC(F)(CNC(=O)c1nccc(=O)[nH]1)Cc1ccc(F)cc1F (single isomer, unassigned) [Example 255, N-(2-(2,4-difluorobenzyl)-2-fluorobutyl)-6-oxo-1,6-dihydropyrimidine-2-carboxamide]",6.45,7.29
"CCC(F)(CNC(=O)c1nccc(=O)[nH]1)Cc1ccc(F)cc1F (single isomer, unassigned) [Example 256, N-(2-(2,4-difluorobenzyl)-2-fluorobutyl)-6-oxo-1,6-dihydropyrimidine-2-carboxamide]",5.09,6.13
"CC(CNC(=O)c1ncc(F)c(=O)[nH]1)(Cc1ccc(F)cc1F)C1CC1 (single isomer, unassigned) [Example 257, N-[2-cyclopropyl-3-(2,4-difluorophenyl)-2-methylpropyl]-5-fluoro-4-oxo-3H-pyrimidine-2-carboxamide]",6.82,8.37
"CC(CNC(=O)c1ncc(F)c(=O)[nH]1)(Cc1ccc(F)cc1)C1CC1 (single isomer, unassigned) [Example 261, N-[2-cyclopropyl-3-(4-fluorophenyl)-2-methylpropyl]-5-fluoro-4-oxo-3H-pyrimidine-2-carboxamide]",7.13,8.29
"CC(CNC(=O)c1ncc(F)c(=O)[nH]1)(Cc1ccc(F)cc1)C1CC1 (single isomer, unassigned) [Example 262, N-[2-cyclopropyl-3-(4-fluorophenyl)-2-methylpropyl]-5-fluoro-4-oxo-3H-pyrimidine-2-carboxamide]",6.00,7.45
"O=C(NCC1(Cc2ccc(F)cc2F)CCC1)c1cncc(=O)[nH]1 [Example 16, N-((1-(2,4-difluorobenzyl)cyclobutyl)methyl)-6-oxo-1,6-dihydropyrazine-2-carboxamide]",–,7.35

# Second part, the compound after the results:
mPTP Rat liver pIC50 (mPTP [1]),mPTP Rat brain pIC50 (mPTP [2]),SMILES
6.97,7.68,"CC(C)[C@H](CNC(=O)c1nn(C)c(=O)[nH]1)Cc1ccccc1 (single isomer, unassigned) [Example 46B]"
5.04,5.68,"CC[C@@H](CNC(=O)c1nn(C)c(=O)[nH]1)Cc1ccccc1 (single isomer, unassigned) [Example 54a]"
6.82,7.94,"CC[C@H](CNC(=O)c1nn(C)c(=O)[nH]1)Cc1ccccc1 (single isomer, unassigned) [Example 54b]"
6.90,7.60,"CC[C@@H](Cc1ccc(F)cc1F)C(C)NC(=O)c1nn(C)c(=O)[nH]1 (single isomer, unassigned) [Example 223]"
4.52,5.04,"CC[C@@H](Cc1ccc(F)cc1F)C(C)NC(=O)c1nn(C)c(=O)[nH]1 (single isomer, unassigned) [Example 224]"
5.47,6.66,"CC(c1ccc(F)cc1F)[C@@H](CNC(=O)c1nccc(=O)[nH]1)C1CC1 (single isomer, unassigned) [Example 225]"
4.52,4.82,"CC(c1ccc(F)cc1F)[C@@H](CNC(=O)c1nccc(=O)[nH]1)C1CC1 (single isomer, unassigned) [Example 226]"
6.21,7.76,"Cn1nc(C(=O)NCC(C)(Cc2c(F)cc(F)cc2F)C2CC2)[nH]c1=O (single isomer, unassigned) [Example 227, N-[2-cyclopropyl-2-methyl-3-(2,4,6-trifluorophenyl)propyl]-1-methyl-5-oxo-4H-1,2,4-triazole-3-carboxamide]"
6.16,7.12,"Cn1nc(C(=O)NCC(C)(Cc2c(F)cc(F)cc2F)C2CC2)[nH]c1=O (single isomer, unassigned) [Example 228, N-[2-cyclopropyl-2-methyl-3-(2,4,6-trifluorophenyl)propyl]-1-methyl-5-oxo-4H-1,2,4-triazole-3-carboxamide]"
6.32,6.83,"Cn1nc(C(=O)NCC2(Cc3ccc(F)cc3F)CCCO2)[nH]c1=O (single isomer, unassigned) [Example 229]"
6.18,6.40,"Cn1nc(C(=O)NCC2(Cc3ccc(F)cc3F)CCCO2)[nH]c1=O (single isomer, unassigned) [Example 230]"
6.61,7.37,"Cn1nc(C(=O)NCC2(Cc3ccc(F)cc3F)CC23CC3)[nH]c1=O (single isomer, unassigned) [Example 231, N-((1-(2,4-difluorobenzyl)spiro[2.2]pentan-1-yl)methyl)-1-methyl-5-oxo-4,5-dihydro-1H-1,2,4-triazole-3-carboxamide]"
6.65,7.56,"Cn1nc(C(=O)NCC2(Cc3ccc(F)cc3F)CC23CC3)[nH]c1=O (single isomer, unassigned) [Example 232, N-((1-(2,4-difluorobenzyl)spiro[2.2]pentan-1-yl)methyl)-1-methyl-5-oxo-4,5-dihydro-1H-1,2,4-triazole-3-carboxamide]"
6.56,7.46,"CC(c1ccc(F)cc1F)[C@@H](CNC(=O)c1nn(C)c(=O)[nH]1)C1CC1 (single isomer, unassigned) [Example 237]"
6.39,7.71,"CC(CNC(=O)c1ncc(F)c(=O)[nH]1)(Cc1ccc(F)cc1F)C1CC1 (single isomer, unassigned) [Example 258, N-[2-cyclopropyl-3-(2,4-difluorophenyl)-2-methylpropyl]-5-fluoro-4-oxo-3H-pyrimidine-2-carboxamide]"
6.11,–,Cn1nc(C(=O)NCC(Cc2ccc(Cl)cc2F)C2CC2)[nH]c1=O (stereo not shown) [Example 222]
<4.57,–,"Cn1nc(C(=O)NCC2Cc3ccccc3O2)[nH]c1=O (stereo not shown) [Reference Example 114, N-((2,3-dihydrobenzofuran-2-yl)methyl)-1-methyl-5-oxo-4,5-dihydro-1H-1,2,4-triazole-3-carboxamide]"
